± gives the expanded uncertainty stated by the source.
What was measured:
[1] = Crystal 2; visual observation
[2] = Molar enthalpy of transition or fusion; conditions: Crystal 2; DSC
[3] = xn = mol fraction of the nth substance listed; conditions: 100 kPa, Liquid, x2 = 0.334; for mass density: Vibrating tube method; for viscosity: Cone and plate viscometry

C[N+](C)(C)CCO.[Cl-] [choline chloride]
Triple point temperature [1]: 351.62 ± 3 K | Molar enthalpy of transition or fusion [2]: 1.75 ± 0.0717 kcal/mol

NC(N)=O [urea] + C[N+](C)(C)CCO.[Cl-]
mass density ([3]; 293.15 K): 1203 ± 1 kg/m3 | viscosity ([3]; 293.25 K): 2110 ± 210 mPa·s | viscosity ([3]; 299.45 K): 1286 ± 120 mPa·s | mass density ([3]; 303.15 K): 1197 ± 1 kg/m3 | viscosity ([3]; 305.85 K): 725 ± 64 mPa·s | viscosity ([3]; 312.15 K): 432 ± 36 mPa·s | mass density ([3]; 313.15 K): 1192 ± 1 kg/m3 | viscosity ([3]; 318.35 K): 265 ± 21 mPa·s | mass density ([3]; 323.15 K): 1186 ± 1 kg/m3 | viscosity ([3]; 324.55 K): 170 ± 13 mPa·s | viscosity ([3]; 330.95 K): 116 ± 8 mPa·s | mass density ([3]; 333.15 K): 1180 ± 1 kg/m3 | viscosity ([3]; 337.15 K): 83 ± 6 mPa·s | mass density ([3]; 343.15 K): 1175 ± 1 kg/m3 | viscosity ([3]; 343.35 K): 61 ± 4 mPa·s | viscosity ([3]; 349.55 K): 46 ± 3 mPa·s | mass density ([3]; 353.15 K): 1170 ± 1 kg/m3 | viscosity ([3]; 355.85 K): 36 ± 3 mPa·s | viscosity ([3]; 362.05 K): 27 ± 2 mPa·s | mass density ([3]; 363.15 K): 1164 ± 1 kg/m3 | viscosity ([3]; 368.25 K): 21 ± 2 mPa·s

Reference: the NIST ThermoML archive (doi:10.1021/acs.jced.9b00474)
